Tests used:
BRSNW = test: Greenhouse test, solo and combination, post-emergence, 20 DAT; type: in vivo, Brassica napus
Experimental: (§1) The test plants have been seeded, separately for each species, in plastic containers in sandy loamy soil containing 5% of organic matter.
(§2) For the post-emergence treatment, the plants were first grown to the 2 leaf station (GS 12) and applied at GS 12-19 depending on the species. The herbicidal compositions were suspended or emulsified in water as distribution medium and sprayed using finely distributing nozzles.
(§3) The plants have been cultivated due to their individual requirements at 10-25° C. and 20-35° C. The plants were irrigated due to their necessity.
(§4) The racemic mixture (±)-2-exo-(2-Methylbenzyloxy)-1-methyl-4-isopropyl-7-oxabicyclo[2.2.1]heptane was used as herbicide A and formulated as emulsifiable concentrate having an active ingredient concentration of 750 g/l.
(§5) Cyhalofop-butyl (herbicide B.5) was used as an emulsifiable concentrate (EC) formulation having an active ingredient concentration of 200 g/l.
(§6) Metsulfuron-methyl (herbicide B.53) was used as a water soluble granule (SG) formulation having an active ingredient concentration of 20%.
(§7) Bispyribac-sodium (herbicide B.23) was used as a soluble concentrate (SL) formulation having an active ingredient concentration of 408 g/l.
(§8) Quizalofop-P-ethyl (herbicide B.217) was used as a suspension concentrate (SC) formulation having an active ingredient concentration of 106 g/l.
(§9) In the following experiments, the herbicidal activity for the individual herbicide compounds (solo and mixture applications) was assessed 20 days after treatment (DAT).
(§10) The evaluation for the damage on undesired weeds caused by the chemical compositions was carried out using a scale from 0 to 100%, compared to the untreated control plants. Here, 0 means no damage and 100 means complete destruction of the plants.
(§11) The plants used in the greenhouse experiments belonged to the following species:
(§12) E=X+Y−(X·Y/100) • where X=effect in percent using herbicide A at an application rate a; • Y=effect in percent using herbicide B at application rate b; • E=expected effect (in %) of herbicide A+herbicide B at application rates a+b.
(§13) The value E corresponds to the effect (plant damage or injury) which is to be expected if the activity of the individual compounds is additive. If the observed effect is higher than the value E calculated according to the Colby equation, a synergistic effect is present.
(§14) Tables 3 to 6 below relate the herbicidal activity, in greenhouse trials, of the individual actives and the combination applied at different rates and ratios, in post-emergence application at 20 days after treatment (DAT).

ALOMY = test: as above; type: in vivo, Alopecurus myosuroides; settings: solo application 1 g ai/ha
Experimental: as §1, §2, §3, §4, §5, §6, §7, §8, §9, §10, §11, §12, §13, §14

PAPRH = test: as above; type: in vivo, Papaver rhoeas
Experimental: as §1, §2, §3, §4, §5, §6, §7, §8, §9, §10, §11, §12, §13, §14

LOLRI = test: as above; type: in vivo, Lolium rigidum; settings: solo application 1 g ai/ha
Experimental: as §1, §2, §3, §4, §5, §6, §7, §8, §9, §10, §11, §12, §13, §14

GALAP = test: as above; type: in vivo, Galium aparine
Experimental: as §1, §2, §3, §4, §5, §6, §7, §8, §9, §10, §11, §12, §13, §14

MATIN = test: as above; type: in vivo, Matricaria inodora
Experimental: as §1, §2, §3, §4, §5, §6, §7, §8, §9, §10, §11, §12, §13, §14

[1] = system: blackgrass (ALOMY) biotypes; test: Greenhouse test, control of resistant weed biotypes, post-emergence, blackgrass; type: in vivo, Alopecurus myosuroides; settings: post-emergence, scale 0 to 100
Experimental: (§15) The herbicidal activity of herbicide A on resistant weed biotypes was tested in comparison with certain commercial herbicides by the following greenhouse experiments:
(§16) The culture containers used were plastic flowerpots containing loamy sand with approximately 3.0% of humus as the substrate. The seeds of the test plants were sown separately for each species. Six blackgrass (ALOMY) (10-103, 10-170, 09-591, 10-123, 11-215, 11-146) and six ryeg rass (LOLMU) (12-166, 12-143, 12-165, 12-307, 13-304, 13-313) biotypes with varying degrees of resistance towards a range of modes of action according to the HRAC (Herbicide Resistance Action Committee) classification on mode of action 2010 (see e.g http://www.hracglobal.com/pages/classificationofherbicidesiteofaction.aspx) were tested alongside two non-resistant biotypes (14-116 and 13-243), see Tables 1 and 2 below.
(§17) For the post-emergence treatment, the test plants were first grown to a height of 3 to 15 cm, depending on the plant habit, and only then treated with the active ingredients which had been suspended or emulsified in water. For this purpose, the test plants were either sown directly and grown in the same containers, or they were first grown separately as seedlings and transplanted into the test containers a few days prior to treatment.
(§18) Depending on the species, the plants were kept at 10-25° C. or 20-35° C. The test period extended over 2 to 4 weeks. During this time, the plants were tended, and their response to the individual treatments was evaluated.
(§19) The racemic mixture (±)-2-exo-(2-Methylbenzyloxy)-1-methyl-4-isopropyl-7-oxabicyclo[2.2.1]heptane was used as herbicide A and formulated as emulsifiable concentrates with an active ingredient concentration of 50 g/l, 100 g/l or 750 g/l respectively.
(§20) Flufenacet was used as a commercial concentrated solution formulation having an active ingredient concentration of 500 g/l (Cadou).
(§21) Imazamox was used as a water dispersible granule (70% WG).
(§22) Evaluation of the herbicidal activity was carried out using a scale from 0 to 100. 100 means complete destruction of at least the aerial moieties, and 0 means no damage, or normal course of growth. A good herbicidal activity is given at values of at least 70 and a very good herbicidal activity is given at values of at least 85.

[2] = system: ryegrass (LOLMU) biotypes; test: Greenhouse test, control of resistant weed biotypes, post-emergence, ryegrass; type: in vivo, Lolium multiflorum; settings: post-emergence, scale 0 to 100
Experimental: as §15, §16, §17, §18, §19, §20, §21, §22

[3] = BT 09-591, resistant HRAC group A, B, K, 125 g ai/ha
[4] = BT 10-103, resistant HRAC group A, B, K, 125 g ai/ha
[5] = BT 10-123, resistant HRAC group A, B, C, 125 g ai/ha
[6] = BT 10-170, resistant HRAC group A, B, K, 125 g ai/ha
[7] = BT 11-146, resistant HRAC group K, 125 g ai/ha
[8] = BT 11-215, resistant HRAC group A, B, C, E, K, 125 g ai/ha
[9] = BT 14-116, Sensitive standard, 125 g ai/ha
[10] = BT 12-143, resistant HRAC group A, B, C, E, K, 125 g ai/ha
[11] = BT 12-165, resistant HRAC group A, B, E, K, 125 g ai/ha
[12] = BT 12-166, resistant HRAC group A, B, E, K, 125 g ai/ha
[13] = BT 12-307, resistant HRAC group B, F, K, O, 125 g ai/ha
[14] = BT 13-243, Sensitive standard, 125 g ai/ha
[15] = BT 13-304, resistant HRAC group A, B, E, K, 125 g ai/ha
[16] = BT 13-313, resistant HRAC group A, B, C, E, K, 125 g ai/ha

`COC(=O)c1ccccc1S(=O)(=O)NC(=O)Nc1nc(C)nc(OC)n1` [metsulfuron-methyl] was tested, and the Herbicidal activity (BRSNW; solo application 1 g ai/ha) was 90%, the Herbicidal activity (BRSNW; solo application 2 g ai/ha) was 95% and the Herbicidal activity (BRSNW; solo application 8 g ai/ha) was 98%. For the same compound, the Herbicidal activity (ALOMY) was 0%, the Herbicidal activity (PAPRH; solo application 1 g ai/ha) was 0% and the Herbicidal activity (PAPRH; solo application 4 g ai/ha) was 50%. The Herbicidal activity (PAPRH; solo application 8 g ai/ha) was 98%, the Herbicidal activity (LOLRI) was 10% and the Herbicidal activity (GALAP; solo application 4 g ai/ha) was 30%. The Herbicidal activity (GALAP; solo application 8 g ai/ha) was 25%, the Herbicidal activity (MATIN; solo application 1 g ai/ha) was 90% and the Herbicidal activity (MATIN; solo application 2 g ai/ha) was 90%. It also gave a Herbicidal activity (MATIN; solo application 4 g ai/ha) of 85% and a Herbicidal activity (MATIN; solo application 8 g ai/ha) of 90%.
In the case of `COCc1cnc(C2=NC(C)(C(C)C)C(=O)N2)c(C(=O)O)c1` (stereo not shown) [Imazamox, imazamox], the Herbicidal activity ([1]; BT 09-591, resistant HRAC group A, B, K, 62.5 g ai/ha) is reported as 20, the Herbicidal activity [1, 3] is reported as 50 and the Herbicidal activity ([1]; BT 10-103, resistant HRAC group A, B, K, 62.5 g ai/ha) is reported as 60. For the same compound, the Herbicidal activity [1, 4] was 70, the Herbicidal activity ([1]; BT 10-123, resistant HRAC group A, B, C, 62.5 g ai/ha) was 60 and the Herbicidal activity [1, 5] was 70. The Herbicidal activity ([1]; BT 10-170, resistant HRAC group A, B, K, 62.5 g ai/ha) was 80, the Herbicidal activity [1, 6] was 95 and the Herbicidal activity ([1]; BT 11-146, resistant HRAC group K, 62.5 g ai/ha) was 75. For the same compound, the Herbicidal activity [1, 7] was 75, the Herbicidal activity ([1]; BT 11-215, resistant HRAC group A, B, C, E, K, 62.5 g ai/ha) was 85 and the Herbicidal activity [1, 8] was 85. The Herbicidal activity ([1]; BT 14-116, Sensitive standard, 62.5 g ai/ha) was 95, the Herbicidal activity [1, 9] was 95 and the Herbicidal activity ([2]; BT 12-143, resistant HRAC group A, B, C, E, K, 62.5 g ai/ha) was 65. The Herbicidal activity [2, 10] was 75, the Herbicidal activity ([2]; BT 12-165, resistant HRAC group A, B, E, K, 62.5 g ai/ha) was 70 and the Herbicidal activity [2, 11] was 85. It also gave a Herbicidal activity ([2]; BT 12-166, resistant HRAC group A, B, E, K, 62.5 g ai/ha) of 85, a Herbicidal activity [2, 12] of 98 and a Herbicidal activity ([2]; BT 12-307, resistant HRAC group B, F, K, O, 62.5 g ai/ha) of 80. For the same compound, the Herbicidal activity [2, 13] was 85, the Herbicidal activity ([2]; BT 13-243, Sensitive standard, 62.5 g ai/ha) was 90 and the Herbicidal activity [2, 14] was 85. It also gave a Herbicidal activity ([2]; BT 13-304, resistant HRAC group A, B, E, K, 62.5 g ai/ha) of 90, a Herbicidal activity [2, 15] of 85 and a Herbicidal activity ([2]; BT 13-313, resistant HRAC group A, B, C, E, K, 62.5 g ai/ha) of 80. It also gave a Herbicidal activity [2, 16] of 85.
In the case of `CC(C)N(C(=O)COc1nnc(C(F)(F)F)s1)c1ccc(F)cc1` [Flufenacet, flufenacet], the Herbicidal activity [1, 3] is reported as 80, the Herbicidal activity ([1]; BT 09-591, resistant HRAC group A, B, K, 250 g ai/ha) is reported as 95 and the Herbicidal activity [1, 4] is reported as 75. It also gave a Herbicidal activity ([1]; BT 10-103, resistant HRAC group A, B, K, 250 g ai/ha) of 90, a Herbicidal activity [1, 5] of 80 and a Herbicidal activity ([1]; BT 10-123, resistant HRAC group A, B, C, 250 g ai/ha) of 95. The Herbicidal activity [1, 6] was 90, the Herbicidal activity ([1]; BT 10-170, resistant HRAC group A, B, K, 250 g ai/ha) was 95 and the Herbicidal activity [1, 7] was 70. It also gave a Herbicidal activity ([1]; BT 11-146, resistant HRAC group K, 250 g ai/ha) of 80, a Herbicidal activity [1, 8] of 75 and a Herbicidal activity ([1]; BT 11-215, resistant HRAC group A, B, C, E, K, 250 g ai/ha) of 95. For the same compound, the Herbicidal activity [1, 9] was 98, the Herbicidal activity ([1]; BT 14-116, Sensitive standard, 250 g ai/ha) was 100 and the Herbicidal activity [2, 10] was 60. It also gave a Herbicidal activity ([2]; BT 12-143, resistant HRAC group A, B, C, E, K, 250 g ai/ha) of 60, a Herbicidal activity [2, 11] of 60 and a Herbicidal activity ([2]; BT 12-165, resistant HRAC group A, B, E, K, 250 g ai/ha) of 60. It also gave a Herbicidal activity [2, 12] of 10, a Herbicidal activity ([2]; BT 12-166, resistant HRAC group A, B, E, K, 250 g ai/ha) of 60 and a Herbicidal activity [2, 13] of 15. For the same compound, the Herbicidal activity ([2]; BT 12-307, resistant HRAC group B, F, K, O, 250 g ai/ha) was 15, the Herbicidal activity [2, 14] was 80 and the Herbicidal activity ([2]; BT 13-243, Sensitive standard, 250 g ai/ha) was 95. The Herbicidal activity [2, 15] was 75, the Herbicidal activity ([2]; BT 13-304, resistant HRAC group A, B, E, K, 250 g ai/ha) was 75 and the Herbicidal activity [2, 16] was 35. It also gave a Herbicidal activity ([2]; BT 13-313, resistant HRAC group A, B, C, E, K, 250 g ai/ha) of 50.
